Like-named read-outs stand apart in the source and are kept apart here.
Experiments:
Assay type in all cases: cell-based
[1] = molecular target: T1, F876L mutant Androgen Receptor (AR-F876L) (Homo sapiens (Human), UniProt P10275, F877L); assay: LNCaP-AR-F876L ANT reporter assay (antagonist mode); details: for Emax: read-out: LNCaP-AR-F876L ANT MAX % Inh
[2] = molecular target: T1, F876L mutant Androgen Receptor (AR-F876L); assay: LNCaP-AR-F876L AG reporter assay (agonist mode); details: for Emax: read-out: LNCaP-AR-F876L AG MAX % Stim
[3] = molecular target: T2, wild-type Androgen Receptor (AR-wt) (Homo sapiens (Human), UniProt P10275); assay: LNCaP-AR-wt ANT reporter assay (antagonist mode); details: for Emax: read-out: LNCaP-AR-wt ANT MAX % Inh
T2 sequence (P10275 whole entry): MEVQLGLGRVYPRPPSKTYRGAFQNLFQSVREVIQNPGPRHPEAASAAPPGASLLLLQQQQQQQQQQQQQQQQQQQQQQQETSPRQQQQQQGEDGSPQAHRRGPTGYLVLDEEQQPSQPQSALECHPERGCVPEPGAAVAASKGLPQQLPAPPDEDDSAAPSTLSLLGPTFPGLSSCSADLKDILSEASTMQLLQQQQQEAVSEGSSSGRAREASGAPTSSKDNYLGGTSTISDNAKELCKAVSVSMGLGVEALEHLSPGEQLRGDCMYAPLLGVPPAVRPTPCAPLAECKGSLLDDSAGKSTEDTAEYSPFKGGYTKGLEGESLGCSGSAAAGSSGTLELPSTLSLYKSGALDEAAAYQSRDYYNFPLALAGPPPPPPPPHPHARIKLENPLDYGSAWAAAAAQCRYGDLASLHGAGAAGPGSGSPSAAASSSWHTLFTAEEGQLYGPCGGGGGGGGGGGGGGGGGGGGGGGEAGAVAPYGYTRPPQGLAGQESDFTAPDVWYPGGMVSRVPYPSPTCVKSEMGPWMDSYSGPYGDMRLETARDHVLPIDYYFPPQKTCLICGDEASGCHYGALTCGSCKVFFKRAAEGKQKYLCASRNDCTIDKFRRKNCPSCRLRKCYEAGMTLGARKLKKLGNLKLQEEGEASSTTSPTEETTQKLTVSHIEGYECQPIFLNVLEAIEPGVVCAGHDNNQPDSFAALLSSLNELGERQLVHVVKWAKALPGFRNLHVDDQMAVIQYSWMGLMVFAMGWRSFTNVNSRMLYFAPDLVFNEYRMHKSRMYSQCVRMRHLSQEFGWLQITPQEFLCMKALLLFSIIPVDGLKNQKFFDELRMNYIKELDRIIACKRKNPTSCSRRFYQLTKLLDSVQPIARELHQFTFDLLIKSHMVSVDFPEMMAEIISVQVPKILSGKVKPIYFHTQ

[4] = molecular target: T2, wild-type Androgen Receptor (AR-wt); assay: LNCaP-AR-wt AG reporter assay (agonist mode); details: for Emax: read-out: LNCaP-AR-wt AG MAX % Stim
[5] = antagonist mode, maximum % inhibition of R1881 control response over tested concentration range
[6] = antagonist mode, pIC50 = −Log10(IC50 in Molar), read-out: LNCaP-AR-F876L ANT pIC50 (converted)
[7] = agonist mode, maximum % stimulation over tested concentration range
[8] = agonist mode, pEC50 = −Log10(EC50 in Molar), read-out: LNCaP-AR-F876L AG pEC50 (converted)
[9] = antagonist mode, pIC50 = −Log10(IC50 in Molar), read-out: LNCaP-AR-wt ANT pIC50 (converted)
[10] = agonist mode, pEC50 = −Log10(EC50 in Molar), read-out: LNCaP-AR-wt AG pEC50 (converted)

T1 sequence (P10275 whole entry F877L): as the sequence (P10275 whole entry) above, with F877L counted along it

Emax [1, 5] [%] | IC50 [1, 6] [nM] | Emax [2, 7] [%] | EC50 [2, 8] [nM] | Emax [3, 5] [%] | IC50 [3, 9] [nM] | Emax [4, 7] [%] | EC50 [4, 10] [nM] | SMILES | IC50 ([1]; LNCaP-AR-F876L ANT pIC50) [nM] | Emax [1] [%] | EC50 [2] [nM] | Emax [2] [%] | IC50 ([3]; LNCaP-AR-wt ANT pIC50) [nM] | Emax [3] [%] | EC50 [4] [nM] | Emax [4] [%]
102 | 692 | 0.1 | > 15100 | 101 | 1580 | 0 | > 15100 | CN1CCC(NC(=O)c2ccc(N3C(=S)N(c4cnc(C#N)c(C(F)(F)F)c4)C(=O)C34CCC4)cc2)C1 (centres unmarked) [Cpd 192, 4-[6-[6-cyano-5-(trifluoromethyl)-3-pyridyl]-5-oxo-7-thioxo-6,8-diazaspiro[3.4]octan-8-yl]-N-(1-methylpyrrolidin-3-yl)benzamide] | – | – | – | – | – | – | – | –
101 | 191 | 0.4 | > 15100 | 101 | 229 | 0.1 | > 15100 | CN1CCC12CC(Oc1ccc(N3C(=S)N(c4cnc(C#N)c(C(F)(F)F)c4)C(=O)C34CCC4)cn1)C2 (centres unmarked) [Cpd 193, 5-[8-[6-[(3-methyl-3-azaspiro[3.3]heptan-6-yl)oxy]-3-pyridyl]-5-oxo-7-thioxo-6,8-diazaspiro[3.4]octan-6-yl]-3-(trifluoromethyl)pyridine-2-carbonitrile] | – | – | – | – | – | – | – | –
99.9 | 437 | 0.2 | > 15100 | 100 | 589 | -0.2 | > 15100 | CN(C(=O)OC(C)(C)C)C1(COc2ccc(N3C(=S)N(c4cnc(C#N)c(C(F)(F)F)c4)C(=O)C34CCC4)cc2)COC1 [Cpd 196, tert-butyl N-[3-[[4-[6-[6-cyano-5-(trifluoromethyl)-3-pyridyl]-5-oxo-7-thioxo-6,8-diazaspiro[3.4]octan-8-yl]phenoxy]methyl]oxetan-3-yl]-N-methyl-carbamate] | – | – | – | – | – | – | – | –
– | – | – | – | – | – | – | – | CN(C)C1(c2ccc(N3C(=S)N(c4cnc(C#N)c(C(F)(F)F)c4)C(=O)C34CCC4)cc2)COC1 [Cpd 197, 5-(5-(4-(3-(dimethylamino)oxetan-3-yl)phenyl)-8-oxo-6-thioxo-5,7-diazaspiro[3.4]octan-7-yl)-3-(trifluoromethyl)picolinonitrile] | 447 | 101 | > 15100 | 0.3 | 1070 | 99.3 | > 15100 | 0.1
102 | 562 | 0.1 | > 15100 | 102 | 562 | 0.1 | > 15100 | CC(=O)N1CCC(n2cc3ccc(N4C(=S)N(c5cnc(C#N)c(C(F)(F)F)c5)C(=O)C45CCC5)cc3n2)CC1 [Cpd 198, 5-[8-[2-(1-acetyl-4-piperidyl)indazol-6-yl]-5-oxo-7-thioxo-6,8-diazaspiro[3.4]octan-6-yl]-3-(trifluoromethyl)pyridine-2-carbonitrile] | – | – | – | – | – | – | – | –
102 | 1510 | 0.9 | > 15100 | 88.9 | 1620 | -0.2 | > 15100 | CN1CCC(n2cc3ccc(N4C(=S)N(c5cnc(C#N)c(C(F)(F)F)c5)C(=O)C45CCC5)cc3n2)CC1 [Cpd 199, 5-[8-[2-(1-methyl-4-piperidyl)indazol-6-yl]-5-oxo-7-thioxo-6,8-diazaspiro[3.4]octan-6-yl]-3-(trifluoromethyl)pyridine-2-carbonitrile] | – | – | – | – | – | – | – | –
99.1 | 794 | 0.5 | > 15100 | 99.6 | 708 | 0.4 | > 15100 | CN1CCC[C@@H](CNC(=O)c2ccc(N3C(=S)N(c4cnc(C#N)c(C(F)(F)F)c4)C(=O)C34CCC4)cc2F)C1 [Cpd 200, 4-[6-[6-cyano-5-(trifluoromethyl)-3-pyridyl]-5-oxo-7-thioxo-6,8-diazaspiro[3.4]octan-8-yl]-2-fluoro-N-[[(3S)-1-methyl-3-piperidyl]methyl]benzamide] | – | – | – | – | – | – | – | –
101 | 214 | 0 | > 15100 | 101 | 355 | -0.3 | > 15100 | CN1CCC(CNC(=O)c2ccc(N3C(=S)N(c4cnc(C#N)c(C(F)(F)F)c4)C(=O)C34CCC4)cc2F)CC1 [Cpd 201, 4-[6-[6-cyano-5-(trifluoromethyl)-3-pyridyl]-5-oxo-7-thioxo-6,8-diazaspiro[3.4]octan-8-yl]-2-fluoro-N-[(1-methyl-4-piperidyl)methyl]benzamide] | – | – | – | – | – | – | – | –
101 | 603 | 0 | > 15100 | 102 | 1100 | -0.1 | > 15100 | N#Cc1ncc(N2C(=O)C3(CCC3)N(c3ccc(C(=O)NC[C@@H]4CCCNC4)c(F)c3)C2=S)cc1C(F)(F)F [Cpd 202, 4-[6-[6-cyano-5-(trifluoromethyl)-3-pyridyl]-5-oxo-7-thioxo-6,8-diazaspiro[3.4]octan-8-yl]-2-fluoro-N-[[(3R)-3-piperidyl]methyl]benzamide] | – | – | – | – | – | – | – | –
100 | 562 | 0 | > 15100 | 102 | 891 | -0.1 | > 15100 | CN1CCC[C@H](CNC(=O)c2ccc(N3C(=S)N(c4cnc(C#N)c(C(F)(F)F)c4)C(=O)C34CCC4)cc2F)C1 [Cpd 203, 4-[6-[6-cyano-5-(trifluoromethyl)-3-pyridyl]-5-oxo-7-thioxo-6,8-diazaspiro[3.4]octan-8-yl]-2-fluoro-N-[[(3R)-1-methyl-3-piperidyl]methyl]benzamide] | – | – | – | – | – | – | – | –
99.7 | 1950 | 0 | > 15100 | 102 | 2450 | 0.1 | > 15100 | N#Cc1ncc(N2C(=O)C3(CCC3)N(c3ccc(C(=O)NC[C@H]4CCCNC4)c(F)c3)C2=S)cc1C(F)(F)F [Cpd 204, 4-[6-[6-cyano-5-(trifluoromethyl)-3-pyridyl]-5-oxo-7-thioxo-6,8-diazaspiro[3.4]octan-8-yl]-2-fluoro-N-[[(3S)-3-piperidyl]methyl]benzamide] | – | – | – | – | – | – | – | –
100 | 708 | 0.1 | > 15100 | 101 | 1100 | -0.1 | > 15100 | CN1CC[C@@H](CNC(=O)c2ccc(N3C(=S)N(c4cnc(C#N)c(C(F)(F)F)c4)C(=O)C34CCC4)cc2F)C1 [Cpd 205, 4-[6-[6-cyano-5-(trifluoromethyl)-3-pyridyl]-5-oxo-7-thioxo-6,8-diazaspiro[3.4]octan-8-yl]-2-fluoro-N-[[(3S)-1-methylpyrrolidin-3-yl]methyl]benzamide] | – | – | – | – | – | – | – | –
99.3 | 617 | 0.1 | > 15100 | 101 | 851 | 0.1 | > 15100 | CN1CC[C@H](CNC(=O)c2ccc(N3C(=S)N(c4cnc(C#N)c(C(F)(F)F)c4)C(=O)C34CCC4)cc2)C1 [Cpd 206, 4-[6-[6-cyano-5-(trifluoromethyl)-3-pyridyl]-5-oxo-7-thioxo-6,8-diazaspiro[3.4]octan-8-yl]-N-[[(3R)-1-methylpyrrolidin-3-yl]methyl]benzamide] | – | – | – | – | – | – | – | –
101 | 1020 | 0 | > 15100 | 103 | 871 | 0 | > 15100 | CN(C)C1(COc2ccc(N3C(=S)N(c4cnc(C#N)c(C(F)(F)F)c4)C(=O)C34CCC4)cc2)COC1 [Cpd 208, 5-[8-[4-[[3-(dimethylamino)oxetan-3-yl]methoxy]phenyl]-5-oxo-7-thioxo-6,8-diazaspiro[3.4]octan-6-yl]-3-(trifluoromethyl)pyridine-2-carbonitrile] | – | – | – | – | – | – | – | –
100 | 417 | 0 | > 15100 | 99 | 457 | -0.1 | > 15100 | CN1CCC(CN(C)C(=O)c2ccc(N3C(=S)N(c4cnc(C#N)c(C(F)(F)F)c4)C(=O)C34CCC4)cc2)CC1 [Cpd 209, 4-[6-[6-cyano-5-(trifluoromethyl)-3-pyridyl]-5-oxo-7-thioxo-6,8-diazaspiro[3.4]octan-8-yl]-N-methyl-N-[(1-methyl-4-piperidyl)methyl]benzamide] | – | – | – | – | – | – | – | –
100 | 1100 | 0.1 | > 15100 | 102 | 1170 | 0.1 | > 15100 | CN1CCC(C)(Oc2ccc(N3C(=S)N(c4cnc(C#N)c(C(F)(F)F)c4)C(=O)C34CCC4)cn2)CC1 [Cpd 210, 5-[8-[6-[(1,4-dimethyl-4-piperidyl)oxy]-3-pyridyl]-5-oxo-7-thioxo-6,8-diazaspiro[3.4]octan-6-yl]-3-(trifluoromethyl)pyridine-2-carbonitrile] | – | – | – | – | – | – | – | –

— patent publication US10981926B2 (Janssen Pharmaceutica NV, priority 2016, dated 2021)
